Results taken from patent US20200399262A1, “COMPOUNDS FOR INHIBITING PROTEIN DEGRADATION AND METHODS OF USE THEREOF IN THE TREATMENT OF CANCER” (PI Therapeutics Ltd, priority 2018, published 2020).

What was measured:
Test in all cases: Cell viability panel, ATPlite 1Step
Assay type in all cases: cell-based
[1] = test system: RPMI-7951; details: Homo sapiens, Melanoma, 72 h exposure, read-out: Compound EC50
Procedure: (§1) Cell viability panel studies. Cells were diluted in the corresponding ATCC recommended medium and dispensed in a 384-well plate, depending on the cell line used, at a density of 200-6400 cells per well. For each used cell line, the optimal cell density was used. Compound was serially diluted and 8 concentration (0.04-32 μM) were added to the cells for 72 h exposure. At t=end, of ATPlite 1Step™ (PerkinElmer) were used to calculate cell viability. Cell lines marked with asterisk were seeded 24 h prior to treatment in 96-well plates at the density range of 5,000-40,000 cells/well, according to duplication rate, in RPMI 1640 medium containing 10% fetal bovine serum and 2 mM L-glutamine. Compounds were diluted from 10 mM DMSO stock and treatment was applied at the range of 0.04-1 μM. Following incubation at 37° C. for 48 hours with increasing concentrations of the compounds, viability was determined with CyQUANT® Direct Assay Kit (Invitrogen). Output intensities were normalized to values after treatment with DMSO alone, and EC50 values were calculated using the absorbance measurements [time zero, (Tz), growth control, (C), plus the test growth at the four drug concentration levels (Ti)] as follows: [(Ti−Tz)/(C−Tz)]×100 for concentrations for which Ti>/=Tz; [(Ti−Tz)/Tz]×100 for concentrations for which Ti−<Tz.

[2] = test system: MIA PaCa-2; details: Homo sapiens, Pancreatic ductal adenocarcinoma, 72 h exposure, read-out: Compound EC50
Procedure: as §1

[3] = test system: SJCRH30; details: Alveolar rhabdomyosarcoma, 72 h exposure, read-out: Compound EC50
Procedure: as §1

[4] = test system: SNU-C2B; details: Homo sapiens, Cecum adenocarcinoma, 72 h exposure, read-out: Compound EC50
Procedure: as §1

[5] = test system: NCI-H460; details: Homo sapiens, Large cell lung carcinoma, 72 h exposure, read-out: Compound EC50
Procedure: as §1

[6] = test system: SU-DHL-6; details: Homo sapiens, Diffuse large B-cell lymphoma, 72 h exposure, read-out: Compound EC50
Procedure: as §1

[7] = test system: SW837; details: Homo sapiens, Rectal adenocarcinoma, 72 h exposure, read-out: Compound EC50
Procedure: as §1

[8] = test system: SW620; details: Homo sapiens, SW-620, Colon adenocarcinoma, 72 h exposure, read-out: Compound EC50
Procedure: as §1

[9] = test system: G-361; details: Homo sapiens, Melanoma, 72 h exposure, read-out: Compound EC50
Procedure: as §1

[10] = test system: U-2 OS; details: Homo sapiens, U2OS, Osteosarcoma, 72 h exposure, read-out: Compound EC50
Procedure: as §1

[11] = test system: 786-O; details: Homo sapiens, 786-0, Renal cell carcinoma, 72 h exposure, read-out: Compound EC50
Procedure: as §1

[12] = test system: SUP-T1; details: Homo sapiens, T lymphoblastic lymphoma, 72 h exposure, read-out: Compound EC50
Procedure: as §1

[13] = test system: KG-1; details: Homo sapiens, Acute myeloid leukemia, 72 h exposure, read-out: Compound EC50
Procedure: as §1

[14] = test system: SW626; details: Homo sapiens, Colon adenocarcinoma, 72 h exposure, read-out: Compound EC50
Procedure: as §1

[15] = test system: KLE; details: Homo sapiens, Endometrial adenocarcinoma, 72 h exposure, read-out: Compound EC50
Procedure: as §1

[16] = test system: KATO III; details: Homo sapiens, Signet ring cell gastric adenocarcinoma, 72 h exposure, read-out: Compound EC50
Procedure: as §1

[17] = test system: SHP-77; details: Homo sapiens, SHP77, Small cell lung carcinoma, 72 h exposure, read-out: Compound EC50
Procedure: as §1

[18] = test system: MG-63; details: Homo sapiens, Osteosarcoma, 72 h exposure, read-out: Compound EC50
Procedure: as §1

[19] = test system: FaDu; details: Homo sapiens, Hypopharyngeal squamous cell carcinoma, 72 h exposure, read-out: Compound EC50
Procedure: as §1

[20] = test system: Hs 578T; details: Homo sapiens, Invasive ductal carcinoma, 72 h exposure, read-out: Compound EC50
Procedure: as §1

[21] = test system: TT; details: Homo sapiens, Hereditary thyroid gland medullary carcinoma, 72 h exposure, read-out: Compound EC50
Procedure: as §1

[22] = test system: Hs 766T; details: Hs766T, Pancreatic adenocarcinoma, 72 h exposure, read-out: Compound EC50
Procedure: as §1

[23] = test system: HCT 116; details: Homo sapiens, Colon carcinoma, 72 h exposure, read-out: Compound EC50
Procedure: as §1

[24] = test system: U-118 MG; details: Homo sapiens, Astrocytoma, 72 h exposure, read-out: Compound EC50
Procedure: as §1

[25] = test system: C-33 A; details: Homo sapiens, Cervical squamous cell carcinoma, 72 h exposure, read-out: Compound EC50
Procedure: as §1

[26] = test system: U-87 MG; details: Homo sapiens, Glioblastoma, 72 h exposure, read-out: Compound EC50
Procedure: as §1

[27] = test system: SW948; details: Homo sapiens, Colon adenocarcinoma, 72 h exposure, read-out: Compound EC50
Procedure: as §1

[28] = test system: SK-N-AS; details: Homo sapiens, Neuroblastoma, 72 h exposure, read-out: Compound EC50
Procedure: as §1

[29] = test system: NCCIT; details: Homo sapiens, Testicular embryonal carcinoma, 72 h exposure, read-out: Compound EC50
Procedure: as §1

## CN(C)CCCS(=O)(=O)N1C/C(=C\c2ccc(C#N)cc2)C(=O)/C(=C/c2ccc(C#N)cc2)C1 [Compound AA]
[1]
  EC50: < 300 nM
[2]
  EC50: 300 to 1000 nM
[3]
  EC50: < 300 nM
[4]
  EC50: 300 to 1000 nM
[5]
  EC50: < 300 nM
[6]
  EC50: < 300 nM
[7]
  EC50: 300 to 1000 nM
[8]
  EC50: < 300 nM
[9]
  EC50: < 300 nM
[10]
  EC50: < 300 nM
[11]
  EC50: < 300 nM
[12]
  EC50: < 300 nM
[13]
  EC50: < 300 nM
[14]
  EC50: < 300 nM
[15]
  EC50: ≥ 1000 nM
[16]
  EC50: 300 to 1000 nM
[17]
  EC50: 300 to 1000 nM
[18]
  EC50: < 300 nM
[19]
  EC50: < 300 nM
[20]
  EC50: < 300 nM
[21]
  EC50: 300 to 1000 nM
[22]
  EC50: 300 to 1000 nM
[23]
  EC50: < 300 nM
[24]
  EC50: < 300 nM
[25]
  EC50: < 300 nM
[26]
  EC50: < 300 nM
[27]
  EC50: < 300 nM
[28]
  EC50: < 300 nM
[29]
  EC50: < 300 nM
